In ChEMBL document CHEMBL1139131, “Lead optimization of 5,6-diarylpyridines as CB1 receptor inverse agonists” (Bioorg Med Chem Lett, 2007):

Assays:
[1] = target: Cannabinoid receptor 2 (Homo sapiens, UniProt P34972)
Description: Binding affinity at CB2 receptor

[2] = in vivo; conditions: Sprague-Dawley, rat
Description: Bioavailability in Sprague-Dawley rat

[3] = in vivo; conditions: Sprague-Dawley, rat; remark: listed apart in the source
Description: Plasma clearance in Sprague-Dawley rat

[4] = in vivo; conditions: Sprague-Dawley, rat; remark: listed apart in the source
Description: Half life in Sprague-Dawley rat

[5] = in vivo; conditions: Sprague-Dawley, rat; remark: listed apart in the source
Description: Volume of distribution in Sprague-Dawley rat

[6] = in vivo; conditions: Sprague-Dawley, rat, brain, iv
Description: Ratio of drug level in brain to plasma in iv dosed Sprague-Dawley rat after 0.25 hr

[7] = in vivo; conditions: Sprague-Dawley, rat, brain, iv; remark: listed apart in the source
Description: Ratio of drug level in brain to plasma in iv dosed Sprague-Dawley rat after 4 hrs

Cannabinoid receptor 2, sequence (P34972 whole entry): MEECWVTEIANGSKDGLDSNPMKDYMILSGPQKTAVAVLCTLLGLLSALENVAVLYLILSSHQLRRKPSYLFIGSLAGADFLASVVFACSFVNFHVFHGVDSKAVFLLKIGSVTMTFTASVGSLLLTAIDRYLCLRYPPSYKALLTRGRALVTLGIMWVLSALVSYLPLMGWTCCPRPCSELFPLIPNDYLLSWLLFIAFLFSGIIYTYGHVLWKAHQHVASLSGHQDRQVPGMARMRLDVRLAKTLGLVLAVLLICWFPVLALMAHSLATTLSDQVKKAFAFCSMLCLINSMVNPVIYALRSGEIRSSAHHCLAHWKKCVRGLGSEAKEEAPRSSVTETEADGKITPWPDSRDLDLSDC

| SMILES | IC50 [1] | further results |
| --- | --- | --- |
| CC(C)N1CCN(c2nc(-c3ccccc3Cl)c(-c3ccc(Cl)cc3)cc2C#N)C(=O)C1=O | 715 nM | – |
| COc1ccc(Oc2nc(-c3ccc(Cl)cc3Cl)c(-c3ccc(Cl)cc3)cc2C#N)cc1 | 3800 nM | – |
| CCC(N)(C#Cc1nc(-c2ccccc2Cl)c(-c2ccc(Cl)cc2)cc1C#N)CC | 1100 nM | – |
| N#Cc1cc(-c2ccc(Cl)cc2)c(-c2ccccc2Cl)nc1Oc1ccc(F)c(F)c1 | 5700 nM | – |
| N#Cc1cc(-c2ccc(Cl)cc2)c(-c2ccccc2Cl)nc1-c1cccnc1 | 3700 nM | – |
| Cn1cc(-c2nc(-c3ccccc3Cl)c(-c3ccc(Cl)cc3)cc2C#N)cn1 | 3300 nM | – |
| CC(C)NC(=O)c1cc(-c2ccc(Cl)cc2)c(-c2ccc(Cl)cc2Cl)nc1Oc1ccc(F)c(F)c1 | 1600 nM | – |
| CN(C)NC(=O)c1cc(-c2ccc(Cl)cc2)c(-c2ccc(Cl)cc2Cl)nc1Oc1ccc(F)c(F)c1 | 1800 nM | bioavailability [2]: 26%; clearance [3]: 24 mL/min/kg; half-life [4]: 4.1 h; Vd [5]: 6.7 L/kg; Kp at […] [6]: 1.2; Kp at 4 h [7]: 3 |
| N#Cc1cc(-c2ccc(Cl)cc2)c(-c2ccc(Cl)cc2Cl)nc1OCCNC(=O)C1CCC1 | 450 nM | – |
| N#Cc1cc(-c2ccc(Cl)cc2)c(-c2ccc(Cl)cc2Cl)nc1Oc1cccc(F)c1 | 2300 nM | – |
| N#Cc1cc(-c2ccc(Cl)cc2)c(-c2ccc(Cl)cc2Cl)nc1Oc1cc(Cl)cc(Cl)c1 | 5600 nM | – |
| N#Cc1cc(-c2ccc(Cl)cc2)c(-c2ccccc2Cl)nc1-c1cncnc1 | 4300 nM | – |
| NC(=O)c1cc(-c2ccc(Cl)cc2)c(-c2ccc(Cl)cc2Cl)nc1Oc1ccc(F)c(F)c1 | 4900 nM | – |
| N#Cc1cc(-c2ccc(Cl)cc2)c(-c2ccccc2Cl)nc1N1CCN(S(=O)(=O)c2cc(F)cc(F)c2)CC1 | 1400 nM | – |
| CC(C)(C)N1CCN(c2nc(-c3ccccc3Cl)c(-c3ccc(Cl)cc3)cc2C#N)CC1 | 2600 nM | – |
| CNN(C)C(=O)c1cc(-c2ccc(Cl)cc2)c(-c2ccc(Cl)cc2Cl)nc1Oc1ccc(F)c(F)c1 | 650 nM | – |

Continued, in another order:

| IC50 [1] | SMILES | further results |
| --- | --- | --- |
| 4400 nM | N#Cc1cc(-c2ccc(Cl)cc2)c(-c2ccc(Cl)cc2Cl)nc1Oc1ccc(F)cc1 | – |
| 1100 nM | CC(C)(C)C(=O)N1CCN(c2nc(-c3ccccc3Cl)c(-c3ccc(Cl)cc3)cc2C#N)CC1 | – |
| 4100 nM | N#Cc1cc(-c2ccc(Cl)cc2)c(-c2ccc(Cl)cc2Cl)nc1Oc1cccc(Cl)c1 | – |
| 4100 nM | N#Cc1cc(-c2ccc(Cl)cc2)c(-c2ccc(Cl)cc2Cl)nc1Oc1ccc(F)c(F)c1 | bioavailability [2]: 66%; clearance [3]: 3.5 mL/min/kg; half-life [4]: 5.6 h; Vd [5]: 1.5 L/kg; Kp at […] [6]: 0.1; Kp at 4 h [7]: 0.61 |
| 2100 nM | CC(C)(C)C#Cc1nc(-c2ccccc2Cl)c(-c2ccc(Cl)cc2)cc1C#N | – |
| 1800 nM | CC(C)(O)C#Cc1nc(-c2ccccc2Cl)c(-c2ccc(Cl)cc2)cc1C#N | – |
| 320 nM | N#Cc1cc(-c2ccc(Cl)cc2)c(-c2ccc(Cl)cc2Cl)nc1Oc1cc(F)cc(F)c1 | – |
| 5200 nM | N#Cc1cc(-c2ccc(Cl)cc2)c(-c2ccc(Cl)cc2Cl)nc1Sc1ccc(F)cc1 | – |
| 2800 nM | N#Cc1cc(-c2ccc(Cl)cc2)c(-c2ccc(Cl)cc2Cl)nc1Nc1ccc(F)cc1 | – |
| 310 nM | N#Cc1cc(-c2ccc(Cl)cc2)c(-c2ccc(Cl)cc2Cl)nc1-n1ccnc1 | – |
| 1700 nM | CC(C)(C)C(=O)Nc1nc(-c2ccc(Cl)cc2Cl)c(-c2ccc(Cl)cc2)cc1C#N | – |
| 4000 nM | N#Cc1cc(-c2ccc(Cl)cc2)c(-c2ccc(Cl)cc2Cl)nc1N1CCCCC1 | – |
| 730 nM | N#Cc1cc(-c2ccc(Cl)cc2)c(-c2ccc(Cl)cc2Cl)nc1OC1CCOC1 (configuration not stated) | – |
| 4200 nM | N#Cc1cc(-c2ccc(Cl)cc2)c(-c2ccc(Cl)cc2Cl)nc1Oc1ccc(Cl)cc1 | – |
| 1800 nM | CC(C)CNc1nc(-c2ccc(Cl)cc2Cl)c(-c2ccc(Cl)cc2)cc1C#N | – |
| 860 nM | CC(C)Oc1nc(-c2ccc(Cl)cc2Cl)c(-c2ccc(Cl)cc2)cc1C#N | – |
| 465 nM | N#Cc1cc(-c2ccc(Cl)cc2)c(-c2ccc(Cl)cc2Cl)nc1-n1nnc2ccccc21 | – |
| 430 nM | N#Cc1cc(-c2ccc(Cl)cc2)c(-c2ccc(Cl)cc2Cl)nc1OCC1CCOC1 (configuration not stated) | – |
| 315 nM | N#Cc1cc(-c2ccc(Cl)cc2)c(-c2ccc(Cl)cc2Cl)nc1NC(=O)c1ccc(F)c(F)c1 | – |
